Results taken from paper PMC8352984, “Estrogen mediates sex differences in preoptic neuropeptide and pituitary hormone production in medaka” (Communications Biology, 2021).
pEC50: −log10 of the molar value.

Tests used:
medaka Vipr1a = test: Receptor activation assay, cAMP-responsive luciferase in COS-7 cells; assay type: cell-based, medaka (Oryzias latipes); settings: for receptor activation, increase in intracellular cAMP levels (in words) / pEC50: COS-7 cells; for receptor activation, increase in intracellular cAMP levels (in words): 6 h; for pEC50: 6 h stimulation, 10^-11 to 10^-5 M, luciferase, triplicate, repeated three times, read-out: half-maximal effective concentration (EC50)
Source text: (§1) The number at each node indicates bootstrap values for 1000 replicates. Scale bar represents 0.1 substitutions per site. SCTR, secretin receptor. For species names and GenBank accession numbers, see Supplementary Table 2. b Ability of Pacap and Vip to activate medaka Pacap/Vip receptors. […] Representative sections of pituitary at different levels along the anterior–posterior axis are shown. Arrowheads indicate expression signals. […] Scale bars represent 50 μm. f Identity of the pituitary cells expressing each Pacap/Vip receptor. The spatial expression pattern of each receptor was compared with that of each pituitary hormone gene in the RPD and PI. Left and middle panels show images of the expression of the indicated receptor (adcyap1r1a, adcyap1r1b, or vipr2b; green) and pituitary hormone gene (sl, prl, or pomc; magenta) in the same sections; right panels show the merged images with nuclear counterstaining (blue). […] Scale bars represent 20 μm. Quantitative data were expressed as means with error bars representing standard error of the mean. […] PI pars intermedia, PPD proximal pars distalis, RPD rostral pars distalis.
(§2) Receptor activation assay was performed essentially as described previously. Medaka Pacap (38 amino acids) and Vip (28 amino acids) polypeptides with amidated C termini were synthesized by Scrum (Tokyo, Japan). cDNA fragments encoding the full-length Adcyap1r1a (GenBank accession number XM_023965124), Adcyap1r1b (XM_011474272), Vipr1a (XM_023950180), Vipr1b (XM_004079106), Vipr2a (XM_023950048) and Vipr2b (XM_023965399) were PCR-amplified and subcloned into the expression vector pcDNA3.1/V5-His-TOPO (Thermo Fisher Scientific). Each of the resulting receptor expression constructs was transiently transfected into COS-7 cells (obtained from and authenticated by Riken BRC Cell Bank), together with the cAMP-responsive luciferase reporter vector pGL4.29 (Promega) and the internal control vector pGL4.74 (Promega) at a ratio of 11:18:1 for 6 h by using Lipofectamine LTX and Plus reagent (Thermo Fisher Scientific). Forty-two hours after transfection, cells were stimulated with Pacap or Vip at doses of 0, 10^−11, 10^−10, 10^−9, 10^−8, 10^−7, 10^−6 and 10^−5 M for 6 h. After cell lysis, luciferase activity was measured by using the Dual-Luciferase Reporter Assay System (Promega). Each assay was performed in triplicate and repeated three times independently.

medaka Adcyap1r1b = test: as above; assay type: cell-based, medaka (Oryzias latipes); settings: for receptor activation, increase in intracellular cAMP levels (in words) / pEC50: COS-7 cells; for receptor activation, increase in intracellular cAMP levels (in words): 6 h; for pEC50: 6 h stimulation, 10^-11 to 10^-5 M, luciferase, triplicate, repeated three times, read-out: half-maximal effective concentration (EC50)
Source text: as §1, §2

medaka Vipr2a = test: as above; assay type: cell-based, medaka (Oryzias latipes); settings: for receptor activation, increase in intracellular cAMP levels (in words) / pEC50: COS-7 cells; for receptor activation, increase in intracellular cAMP levels (in words): 6 h; for pEC50: 6 h stimulation, 10^-11 to 10^-5 M, luciferase, triplicate, repeated three times, read-out: half-maximal effective concentration (EC50)
Source text: as §1, §2

medaka Adcyap1r1a = test: as above; assay type: cell-based, medaka (Oryzias latipes); settings: for receptor activation, increase in intracellular cAMP levels (in words) / pEC50: COS-7 cells; for receptor activation, increase in intracellular cAMP levels (in words): 6 h; for pEC50: 6 h stimulation, 10^-11 to 10^-5 M, luciferase, triplicate, repeated three times, read-out: half-maximal effective concentration (EC50)
Source text: as §1, §2

medaka Vipr1b = test: as above; assay type: cell-based, medaka (Oryzias latipes); settings: for receptor activation, increase in intracellular cAMP levels (in words) / pEC50: COS-7 cells; for receptor activation, increase in intracellular cAMP levels (in words): 6 h; for pEC50: 6 h stimulation, 10^-11 to 10^-5 M, luciferase, triplicate, repeated three times, read-out: half-maximal effective concentration (EC50)
Source text: as §1, §2

medaka Vipr2b = test: as above; assay type: cell-based, medaka (Oryzias latipes); settings: for receptor activation, increase in intracellular cAMP levels (in words) / pEC50: COS-7 cells; for receptor activation, increase in intracellular cAMP levels (in words): 6 h; for pEC50: 6 h stimulation, 10^-11 to 10^-5 M, luciferase, triplicate, repeated three times, read-out: half-maximal effective concentration (EC50)
Source text: as §1, §2

[1] = tested on: Fshb expression, gonadotrophs; settings: dispersed rat pituitary cells; cited from earlier work
Source text: (§3) Contrary to pomc, fshb expression was female-biased and repressed by Pacap and Vip in a female-specific manner. […] Possibly, Pacap may have a similar mechanism of action in medaka. In medaka, however, the inhibitory effect on fshb is assumed to be primarily driven ...

[2] = tested on: luteinizing hormone release via Adcyap1r1; set-up: method as in PMID 10949084; settings: goldfish and rat; cited from earlier work
Source text: as §3

[3] = tested on: Sl-producing cells, via Adcyap1r1; set-up: method as in PMID 18523122, PMID 19540424, PMID 23422837; settings: grass carp and goldfish; cited from earlier work
[4] = tested on: luteinizing hormone β subunit (lhb) gene expression; test: Ex vivo pituitary organ culture, real-time PCR of lhb; assay type: cell-based, medaka (Oryzias latipes); settings: for lhb expression (in words): 10^-5 M, 24 h, 25 °C, vs vehicle;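 as to lhb expression (Fig. 8, lhb): relative expression with female control samples set to 1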
Source text: Fig. 8 Pacap and Vip have pleiotropic effects on the expression of anterior pituitary hormones. The effects of Pacap and Vip on gene expression levels of follicle-stimulating hormone β subunit (fshb), luteinizing hormone β subunit (lhb), thyroid-stimulating hormone β subunit (tshb), growth hormone (gh), somatolactin (sl), prolactin (prl), and pro-opiomelanocortin (pomc) were investigated by using male and female pituitaries cultured ex vivo (n = 6 per group, except male pituitary supplemented with Vip, where n = 5). Data were expressed as means with error bars representing standard error of the mean. Statistical differences were assessed by Dunnett’s post-hoc test. *p < 0.05; **p < 0.01; ***p < 0.001.
The pituitaries from five male or female fish were pooled for each sample and cultured ex vivo in Leibovitz’s L-15 medium supplemented with 5% charcoal-stripped fetal bovine serum as described elsewhere. The medium was further supplemented with 10^−5 M medaka Pacap or Vip, or vehicle alone. After 24 h of culture at 25 °C, the pituitaries were processed for total RNA extraction and cDNA synthesis by using the RNeasy Plus Micro Kit (Qiagen) and SuperScript VILO cDNA Synthesis Kit (Thermo Fisher Scientific), respectively. Real-time PCR was performed on the LightCycler 480 System II using LightCycler 480 SYBR Green I Master (Roche Diagnostics). The cycle conditions were: 95 °C for 5 min followed by 45 cycles of 95 °C for 10 sec, 60 °C for 10 sec and 72 °C for 10 sec. Melting curve analysis was performed as described above. Data were normalized to the geometric mean of three reference genes, actb, gapdh (encoding glyceraldehyde-3-phosphate dehydrogenase; National BioResource Project (NBRP) Medaka clone ID olbrno9_f15) and rpl13 (encoding ribosomal protein L13; NBRP Medaka clone ID olovano51_b24), according to Vandesompele et al.[63]. The primers used for real-time PCR are listed in Supplementary Table 3.

Row | Substance | potency of Pacap and Vip compared (in words) (medaka Vipr1a) | receptor activation, increase in intracellular cAMP levels (in words) (medaka Vipr1a) | pEC50 (medaka Vipr1a) | receptor activation, increase in intracellular cAMP levels (in words) (medaka Adcyap1r1b) | pEC50 (medaka Adcyap1r1b) | potency of Pacap and Vip compared (in words) (medaka Vipr2a) | receptor activation, increase in intracellular cAMP levels (in words) (medaka Vipr2a) | pEC50 (medaka Vipr2a) | receptor activation, increase in intracellular cAMP levels (in words) (medaka Adcyap1r1a) | pEC50 (medaka Adcyap1r1a) | receptor activation, increase in intracellular cAMP levels (in words) (medaka Vipr1b) | pEC50 (medaka Vipr1b) | potency of Pacap and Vip compared (in words) (medaka Vipr2b) | receptor activation, increase in intracellular cAMP levels (in words) (medaka Vipr2b) | pEC50 (medaka Vipr2b) | lhb expression (in words) ([4]; female pituitaries) | lhb expression (Fig. 8, lhb) ([4]; female, replicate 1) | lhb expression (Fig. 8, lhb) ([4]; female, replicate 2) | lhb expression (Fig. 8, lhb) ([4]; female, replicate 3) | lhb expression (Fig. 8, lhb) ([4]; female, replicate 4) | other results
1 | Pituitary adenylate cyclase-activating polypeptide [Pacap] | fairly similar potencies | dose-dependently activated all six receptors | 9.07 | dose-dependently activated all six receptors | 9.94 | fairly similar potencies | dose-dependently activated all six receptors | 5.45 | dose-dependently activated all six receptors | 9.61 | dose-dependently activated all six receptors | 7.83 | fairly similar potencies | dose-dependently activated all six receptors | 5.56 | increased | 2.134 | 1.510 | 1.040 | 2.513 | greater potency of Pacap as compared with Vip (medaka Adcyap1r1b; ratio of EC50): over 100 fold; greater potency of Pacap as compared with Vip (medaka Adcyap1r1a; ratio of EC50): over 100 fold; Pacap less potent as compared with Vip (medaka Vipr1b; ratio of EC50, Pacap is the weaker): approximately 20 fold; fshb expression (in words) [1]: acts directly on gonadotrophs to inhibit Fshb expression; release of luteinizing hormone (in words) [2]: directly stimulates the release of luteinizing hormone via Adcyap1r1; synthesis and release of Sl (in words) [3]: stimulate the synthesis and release of Sl via Adcyap1r1; lhb expression (Fig. 8, lhb) ([4]; female, replicate 5): 1.735; lhb expression (Fig. 8, lhb) ([4]; female, replicate 6): 1.319; lhb expression (in words) ([4]; male pituitaries): increased; lhb expression (Fig. 8, lhb) ([4]; male, replicate 1): 3.240; lhb expression (Fig. 8, lhb) ([4]; male, replicate 2): 1.453; lhb expression (Fig. 8, lhb) ([4]; male, replicate 3): 3.021; lhb expression (Fig. 8, lhb) ([4]; male, replicate 4): 2.751; lhb expression (Fig. 8, lhb) ([4]; male, replicate 5): 1.229; lhb expression (Fig. 8, lhb) ([4]; male, replicate 6): 1.907
2 | vasoactive intestinal peptide [Vip] | fairly similar potencies | dose-dependently activated all six receptors | 9.37 | dose-dependently activated all six receptors | 7.75 | fairly similar potencies | dose-dependently activated all six receptors | 5.61 | dose-dependently activated all six receptors | 7.49 | dose-dependently activated all six receptors | 9.14 | fairly similar potencies | dose-dependently activated all six receptors | 5.37 | no significant effect | 0.807 | 0.719 | 1.380 | 0.757 | lhb expression (Fig. 8, lhb) ([4]; female, replicate 5): 0.750; lhb expression (Fig. 8, lhb) ([4]; female, replicate 6): 0.836; lhb expression (in words) ([4]; male pituitaries): no significant effect; lhb expression (Fig. 8, lhb) ([4]; male, replicate 1): 1.203; lhb expression (Fig. 8, lhb) ([4]; male, replicate 2): 1.004; lhb expression (Fig. 8, lhb) ([4]; male, replicate 3): 1.517; lhb expression (Fig. 8, lhb) ([4]; male, replicate 5): 0.870; lhb expression (Fig. 8, lhb) ([4]; male, replicate 6): 0.512
